Columns and labels:
human orexin-2 receptor = human orexin-2 receptor (Homo sapiens (Human), UniProt O43614); assay: FLIPR Ca2+ flux assay, hOX2R; type: cell-based; conditions: CHO cells expressing the receptor; agonist 70 pM Ala-6,12 human orexin-A
Description: The utility of the compounds in accordance with the present invention as orexin receptor OX1R and/or OX2R antagonists may be readily determined without undue experimentation by methodology well known in the art, including the “FLIPR Ca^2+ Flux Assay” (Okumura et al., Biochem. Biophys. Res. Comm. 280:976-981, 2001). In a typical experiment the OX1 and OX2 receptor antagonistic activity of the compounds of the present invention was determined in accordance with the following experimental method. For intracellular calcium measurements, Chinese hamster ovary (CHO) cells expressing the rat orexin-1 receptor or the human orexin-2 receptor, are grown in Iscove's modified DMEM containing 2 mM L-glutamine, […], 1% hypoxanthine-thymidine supplement, 100 U/ml penicillin, 100 μg/ml streptomycin and 10% heat-inactivated fetal calf serum (FCS). The cells are seeded at 20,000 cells/well into Becton-Dickinson black 384-well clear bottom sterile plates coated with poly-D-lysine. All reagents were from GIBCO-Invitrogen Corp. The seeded plates are incubated overnight at 37° C. and 5% CO2. Ala-6,12 human orexin-A as the agonist is prepared as a 1 mM stock solution in 1% bovine serum albumin (BSA) and diluted in assay buffer (HBSS containing 20 mM HEPES, 0.1% BSA and 2.5 mM probenecid, pH7.4) for use in the assay at a final concentration of 70 pM. Test compounds are prepared as 10 mM stock solution in DMSO, then diluted in 384-well plates, first in DMSO, then assay buffer. On the day of the assay, cells are washed 3 times with 100 μl assay buffer and then incubated for 60 min (37° C., 5% CO2) in 60 μl assay buffer containing 1 μM Fluo-4AM ester, 0.02% pluronic acid, and 1% BSA. The dye loading solution is then aspirated and cells are washed 3 times with 100 μl assay buffer. 30 μl of that same buffer is left in each well. Within the Fluorescent Imaging Plate Reader (FLIPR, Molecular Devices), test compounds are added to the plate in a volume of 25 μl, incubated for 5 min and finally 25 μl of agonist is added. Fluorescence is measured for each well at 1 second intervals for 5 minutes and the height of each fluorescence peak is compared to the height of the fluorescence peak induced by 70 pM Ala-6,12 orexin-A with buffer in place of antagonist. For each antagonist, IC50 value (the concentration of compound needed to inhibit 50% of the agonist response) is determined. Alternatively, compound potency can be assessed by a radioligand binding assay (described in Bergman et. al. Bioorg. Med. Chem. Lett. 2008, 18, 1425-1430) in which the inhibition constant (Ki) is determined in membranes prepared from CHO cells expressing either the OX1 or OX2 receptor. The intrinsic orexin receptor antagonist activity of a compound which may be used in the present invention may be determined by these assays.

[1] = target: hOX1R (orexin-1 receptor) (Homo sapiens, UniProt O43613); assay: FLIPR Ca2+ flux assay, hOX1R; type: cell-based; conditions: CHO cells expressing the receptor; agonist 70 pM Ala-6,12 human orexin-A

Sequence of human orexin-2 receptor (O43614 whole entry): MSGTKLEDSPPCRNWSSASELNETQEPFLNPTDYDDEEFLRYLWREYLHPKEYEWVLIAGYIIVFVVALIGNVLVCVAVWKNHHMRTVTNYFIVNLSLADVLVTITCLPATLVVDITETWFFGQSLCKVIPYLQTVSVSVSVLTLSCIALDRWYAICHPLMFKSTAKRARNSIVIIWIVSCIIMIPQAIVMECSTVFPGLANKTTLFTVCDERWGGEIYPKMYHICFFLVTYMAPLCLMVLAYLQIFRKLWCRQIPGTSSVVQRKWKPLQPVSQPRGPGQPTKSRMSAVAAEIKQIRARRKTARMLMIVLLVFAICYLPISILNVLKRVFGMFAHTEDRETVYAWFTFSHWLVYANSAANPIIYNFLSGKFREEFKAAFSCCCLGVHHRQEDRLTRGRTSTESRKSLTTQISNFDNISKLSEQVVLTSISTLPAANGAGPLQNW

SMILES | IC50 (human orexin-2 receptor) [nM] | IC50 [1] [nM]
CCN(CCn1nc(C)c(C(C)(C)O)n1)C(=O)c1ccc(F)cc1-n1nccn1 [Example 30, N-ethyl-4-fluoro-N-(2-(4-(2-hydroxypropan-2-yl)-5-methyl-2H-1,2,3-triazol-2-yl)ethyl)-2-(2H-1,2,3-triazol-2-yl)benzamide] | 10 | 5540
CCN(CCn1nc(C)c(C(C)(C)O)n1)C(=O)c1ccccc1-n1ncnn1 [Example 42, N-ethyl-N-(2-(4-(2-hydroxypropan-2-yl)-5-methyl-2H-1,2,3-triazol-2-yl)ethyl)-2-(2H-tetrazol-2-yl)benzamide] | 29 | > 10000
CCN(CCn1nc(C)c(C(C)(C)O)n1)C(=O)c1ccccc1OC(F)F [Example 25, 2-(difluoromethoxy)-N-ethyl-N-(2-(4-(2-hydroxypropan-2-yl)-5-methyl-2H-1,2,3-triazol-2-yl)ethyl)benzamide] | 35 | > 10000
CCN(CCn1ncc(C(C)(C)O)n1)C(=O)c1ccccc1-n1nccn1 [Example 1, N-Ethyl-N-(2-(4-(2-hydroxypropan-2-yl)-2H-1,2,3-triazol-2-yl)ethyl)-2-(2H-1,2,3-triazol-2-yl)benzamide] | 58 | > 10000
CCN(CCn1nc(C)c(C(C)(C)O)n1)C(=O)c1ccc(OC)nc1C1CC1 [Example 39, 2-cyclopropyl-N-ethyl-N-(2-(4-(2-hydroxypropan-2-yl)-5-methyl-2H-1,2,3-triazol-2-yl)ethyl)-6-methoxynicotinamide] | 14 | 2840
CCN(CCn1nc(C)c(C(C)(C)O)n1)C(=O)c1cccnc1-c1ccccc1 [Example 31, N-ethyl-N-(2-(4-(2-hydroxypropan-2-yl)-5-methyl-2H-1,2,3-triazol-2-yl)ethyl)-2-phenylnicotinamide] | 33 | > 10000
CCN(CCn1ncc(C(C)O)n1)C(=O)c1ccccc1-n1nccn1 (centres unmarked) [Example 3, N-Ethyl-N-(2-(4-(1-hydroxyethyl)-2H-1,2,3-triazol-2-yl)ethyl)-2-(2H-1,2,3-triazol-2-yl)benzamide] | 373 | > 10000
CCN(CCn1nc(C)c(C(C)(C)O)n1)C(=O)c1nccnc1-n1cccn1 [Example 47, N-ethyl-N-(2-(4-(2-hydroxypropan-2-yl)-5-methyl-2H-1,2,3-triazol-2-yl)ethyl)-3-(1H-pyrazol-1-yl)pyrazine-2-carboxamide] | 239 | > 10000

Continued by falling IC50 (human orexin-2 receptor), values first:

IC50 (human orexin-2 receptor) [nM] | IC50 [1] [nM] | SMILES
87 | > 10000 | CCN(CCn1nc(C)c(C(C)(C)O)n1)C(=O)c1nccnc1-c1ccccn1 [Example 45, N-ethyl-N-(2-(4-(2-hydroxypropan-2-yl)-5-methyl-2H-1,2,3-triazol-2-yl)ethyl)-3-(pyridin-2-yl)pyrazine-2-carboxamide]
58 | > 10000 | CCOc1ncccc1C(=O)N(CC)CCn1nc(C)c(C(C)(C)O)n1 [Example 23, 2-ethoxy-N-ethyl-N-(2-(4-(2-hydroxypropan-2-yl)-5-methyl-2H-1,2,3-triazol-2-yl)ethyl)nicotinamide]
41 | > 10000 | CCN(CCn1ncc(C(C)(C)O)n1)C(=O)c1ccccc1N1CCCC1 [Example 5, N-ethyl-N-(2-(4-(2-hydroxypropan-2-yl)-2H-1,2,3-triazol-2-yl)ethyl)-2-(pyrrolidin-1-yl)benzamide]
34 | > 10000 | CCN(CCn1ncc(C(C)(C)O)n1)C(=O)c1ccccc1SC(F)(F)F [Example 11, N-ethyl-N-(2-(4-(2-hydroxypropan-2-yl)-2H-1,2,3-triazol-2-yl)ethyl)-2-((trifluoromethyl)thio)benzamide]
28 | > 10000 | CCN(CCn1nc(C)c(C(C)(C)O)n1)C(=O)c1ccccc1-n1cccn1 [Example 29, N-ethyl-N-(2-(4-(2-hydroxypropan-2-yl)-5-methyl-2H-1,2,3-triazol-2-yl)ethyl)-2-(1H-pyrazol-1-yl)benzamide]

— patent US10155750B2, “Amidoethyl azole orexin receptor antagonists” (Merck Sharp & Dohme Corp., priority 2014, dated 2018)
